Source: article PMC5497784 (Cell metabolism, 2017)

Biological target: IRE1α (Homo sapiens, UniProt O75460)
Experiment: fluorescent XBP1 mini-substrate RNase assay with recombinant IRE1α*
Type: biochemical

IRE1α, sequence (O75460 469-977): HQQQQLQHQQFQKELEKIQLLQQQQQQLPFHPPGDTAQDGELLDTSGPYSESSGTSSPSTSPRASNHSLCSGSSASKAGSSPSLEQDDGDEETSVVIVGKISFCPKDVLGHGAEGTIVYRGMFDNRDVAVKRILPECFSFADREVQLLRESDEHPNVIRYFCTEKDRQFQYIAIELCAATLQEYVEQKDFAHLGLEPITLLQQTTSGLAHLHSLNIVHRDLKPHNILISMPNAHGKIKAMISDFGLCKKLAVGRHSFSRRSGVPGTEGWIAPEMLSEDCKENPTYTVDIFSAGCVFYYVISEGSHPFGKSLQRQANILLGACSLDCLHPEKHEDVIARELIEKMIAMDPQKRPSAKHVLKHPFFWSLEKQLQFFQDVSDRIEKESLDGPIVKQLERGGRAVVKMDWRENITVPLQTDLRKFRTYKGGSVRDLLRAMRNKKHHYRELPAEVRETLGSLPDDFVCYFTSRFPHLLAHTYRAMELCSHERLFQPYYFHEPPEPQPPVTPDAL

Structure (SMILES): CC(C)(C)c1nc(-c2ccc(NC(=O)Nc3cccc(C(F)(F)F)c3)c3ccccc23)c2c(N)nccn12 [KIRA6, 1-(4-(8-amino-3-tert-butylimidazo[1,5-a]pyrazin-1-yl)naphthalen-1-yl)-3-(3-(trifluoromethyl)phenyl)urea]
- IC50: 40.1 nM
